ChEMBL document CHEMBL4414679, “Discovery of 4,6-pyrimidinediamine derivatives as novel dual EGFR/FGFR inhibitors aimed EGFR/FGFR1-positive NSCLC” (Eur J Med Chem, 2020)
Calls of active or inactive are those of the source. No cut-off for these calls is given here.

Tests used:
[1] = tested on: PC-9; test: Antiproliferative activity against human PC9 cells assessed as inhibition of cell growth at 10 uM incubated for 48 hrs by MTT assay relative to control; type: functional; conditions: PC-9, 48 h
[2] = organism: Homo sapiens; test: Inhibition of colony formation in gefitinib-insensitive human HCC827GR cells measured after 24 hrs by crystal violet staining based assay; type: functional
[3] = Induction of apoptosis in gefitinib-insensitive human HCC827GR cells assessed as early apoptotic cells at 5 uM measured after 24 hrs by Annexin-V/propidium iodide staining-based flow cytometric analysis (reference value: 1.9%); type: functional
[4] = molecular target: Epidermal growth factor receptor (Homo sapiens, UniProt P00533, L858R); test: Inhibition of recombinant human EGFR L858R mutant expressed in baculovirus using FAM-labelled peptide as substrate pre-incubated for 10 mins followed by substrate addition by mobility shift assay
[5] = molecular target: Mitogen-activated protein kinase 1 (Homo sapiens) (UniProt P28482); test: Inhibition of full length N-terminal GST-tagged human ERK2 (1 to 360 AA) expressed in Escherichia coli at 10 uM using FAM-labelled peptide as substrate pre-incubated for 10 mins followed by substrate addition by mobility shift assay relative to control
Chain of Mitogen-activated protein kinase 1 (Homo sapiens) (P28482 whole entry, the tested form may be a part): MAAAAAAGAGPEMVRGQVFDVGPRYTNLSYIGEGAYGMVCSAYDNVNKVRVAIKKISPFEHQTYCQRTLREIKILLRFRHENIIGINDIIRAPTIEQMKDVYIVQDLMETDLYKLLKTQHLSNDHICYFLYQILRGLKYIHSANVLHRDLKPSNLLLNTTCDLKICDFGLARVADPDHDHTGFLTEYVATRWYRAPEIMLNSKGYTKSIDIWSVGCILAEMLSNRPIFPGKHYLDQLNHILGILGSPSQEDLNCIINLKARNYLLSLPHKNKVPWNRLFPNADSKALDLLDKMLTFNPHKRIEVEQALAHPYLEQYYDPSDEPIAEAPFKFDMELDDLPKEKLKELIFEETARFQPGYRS

[6] = molecular target: T1, Fibroblast growth factor receptor 1 (Homo sapiens, UniProt P11362); test: Inhibition of FGF-induced FGFR1 phosphorylation in serum-starved human H520 cells upto 10 uM incubated for 1 hr by Western blot analysis
T1 sequence (P11362 22-822 limits assumed): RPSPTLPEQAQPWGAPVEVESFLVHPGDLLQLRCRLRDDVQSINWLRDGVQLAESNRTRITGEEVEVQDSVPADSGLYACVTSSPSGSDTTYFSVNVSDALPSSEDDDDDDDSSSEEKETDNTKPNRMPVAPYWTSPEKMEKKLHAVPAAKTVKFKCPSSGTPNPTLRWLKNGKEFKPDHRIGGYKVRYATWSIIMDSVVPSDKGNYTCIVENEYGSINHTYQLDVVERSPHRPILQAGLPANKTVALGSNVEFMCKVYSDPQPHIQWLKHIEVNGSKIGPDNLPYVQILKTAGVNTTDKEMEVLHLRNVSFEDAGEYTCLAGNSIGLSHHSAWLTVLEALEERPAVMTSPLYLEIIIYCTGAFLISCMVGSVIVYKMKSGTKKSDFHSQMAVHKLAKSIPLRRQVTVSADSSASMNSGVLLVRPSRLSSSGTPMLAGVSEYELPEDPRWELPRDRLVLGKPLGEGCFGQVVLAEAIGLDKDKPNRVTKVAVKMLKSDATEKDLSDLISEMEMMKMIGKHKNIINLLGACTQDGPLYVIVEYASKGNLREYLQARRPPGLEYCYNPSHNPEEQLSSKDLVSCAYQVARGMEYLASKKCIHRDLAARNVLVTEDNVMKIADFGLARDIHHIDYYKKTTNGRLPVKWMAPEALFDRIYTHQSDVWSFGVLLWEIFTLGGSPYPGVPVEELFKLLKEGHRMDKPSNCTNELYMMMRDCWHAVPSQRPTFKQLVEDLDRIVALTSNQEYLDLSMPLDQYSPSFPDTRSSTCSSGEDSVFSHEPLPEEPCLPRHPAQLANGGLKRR

[7] = molecular target: Fibroblast growth factor receptor 2 (Homo sapiens) (UniProt P21802); test: Inhibition of N-terminal GST tagged human FGFR2 cytoplasmic domain (399 to 821 AA) expressed in baculovirus at 10 uM using FAM-labelled peptide as substrate pre-incubated for 10 mins followed by substrate addition by mobility shift assay relative to control
[8] = molecular target: T1, Fibroblast growth factor receptor 1; test: Inhibition of FGFR in serum-starved human H520 cells assessed as reduction in FGFR-induced AKT phosphorylation upto 10 uM incubated for 1 hr by Western blot analysis
[9] = tested on: NCI-H1581; test: Antiproliferative activity against human NCI-H1581 cells incubated for 48 hrs by MTT assay; type: functional, cell-based; conditions: NCI-H1581, 48 h
[10] = Antiproliferative activity against gefitinib-resistant human HCC827GR cells incubated for 48 hrs by MTT assay; type: functional
[11] = molecular target: T2, Epidermal growth factor receptor (Homo sapiens, UniProt P00533); test: Inhibition of N-terminal GST-tagged human EGFR (d746-750AA) expressed in baculovirus at 10 uM using FAM-labelled peptide as substrate pre-incubated for 10 mins followed by substrate addition by mobility shift assay relative to control
T2 sequence (P00533 whole entry, the tested form may be a part): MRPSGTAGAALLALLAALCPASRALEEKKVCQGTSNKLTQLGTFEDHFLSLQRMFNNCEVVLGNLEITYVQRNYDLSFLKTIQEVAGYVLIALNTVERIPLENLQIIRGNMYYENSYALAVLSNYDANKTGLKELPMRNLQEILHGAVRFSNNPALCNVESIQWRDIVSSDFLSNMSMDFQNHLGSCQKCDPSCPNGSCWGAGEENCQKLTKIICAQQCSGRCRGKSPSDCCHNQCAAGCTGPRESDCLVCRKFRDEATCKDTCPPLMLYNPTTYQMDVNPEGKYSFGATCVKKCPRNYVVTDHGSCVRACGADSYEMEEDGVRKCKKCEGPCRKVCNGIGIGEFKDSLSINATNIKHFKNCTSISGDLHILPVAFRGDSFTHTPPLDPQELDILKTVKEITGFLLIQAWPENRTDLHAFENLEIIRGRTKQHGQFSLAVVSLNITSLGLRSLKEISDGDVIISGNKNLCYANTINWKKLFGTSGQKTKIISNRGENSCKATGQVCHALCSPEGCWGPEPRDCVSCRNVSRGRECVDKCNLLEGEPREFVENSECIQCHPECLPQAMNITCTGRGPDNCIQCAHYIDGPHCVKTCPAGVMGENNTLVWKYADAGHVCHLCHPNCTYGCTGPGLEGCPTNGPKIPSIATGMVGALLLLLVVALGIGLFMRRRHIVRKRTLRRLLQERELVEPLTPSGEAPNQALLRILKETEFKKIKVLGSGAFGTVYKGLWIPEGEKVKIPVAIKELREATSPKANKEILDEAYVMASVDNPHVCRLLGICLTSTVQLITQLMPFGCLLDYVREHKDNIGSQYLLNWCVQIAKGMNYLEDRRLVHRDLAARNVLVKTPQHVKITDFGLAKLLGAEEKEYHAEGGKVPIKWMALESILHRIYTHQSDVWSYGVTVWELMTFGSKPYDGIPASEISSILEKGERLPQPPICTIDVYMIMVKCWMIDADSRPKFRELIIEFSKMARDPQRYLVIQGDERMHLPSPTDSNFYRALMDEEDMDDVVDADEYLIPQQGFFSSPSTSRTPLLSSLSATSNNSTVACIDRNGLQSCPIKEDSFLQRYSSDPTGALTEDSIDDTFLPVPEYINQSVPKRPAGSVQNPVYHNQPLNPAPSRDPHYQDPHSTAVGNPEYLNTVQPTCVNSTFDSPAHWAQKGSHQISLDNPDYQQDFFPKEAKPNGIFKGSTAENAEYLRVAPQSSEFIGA

[12] = molecular target: RAC-alpha serine/threonine-protein kinase (Homo sapiens) (UniProt P31749); test: Inhibition of N-terminal GST tagged human AKT1 catalytic domain (104 to 480 AA) expressed in baculovirus at 10 uM using FAM-labelled peptide as substrate pre-incubated for 10 mins followed by substrate addition by mobility shift assay relative to control
[13] = molecular target: T2, Epidermal growth factor receptor; test: Inhibition of EGFR in serum-starved human HCC827 cells assessed as reduction in EGF-induced AKT phosphorylation upto 10 uM incubated for 1 hr by Western blot analysis; type: cell-based
[14] = tested on: NCI-H226; test: Inhibition of colony formation in human NCI-H226 cells measured after 24 hrs by crystal violet staining based assay; type: functional, cell-based
[15] = molecular target: CDK6/cyclin D3 (Homo sapiens) (UniProt P30281+Q00534); test: Inhibition of N-terminal GST tagged truncated human CDK6 (1 to 326 AA) coexpressed with CyclinD3 (1 to 292 AA) in baculovirus at 10 uM using FAM-labelled peptide as substrate pre-incubated for 10 mins followed by substrate addition by mobility shift assay relative to control; type: protein-complex assay
[16] = molecular target: Platelet-derived growth factor receptor beta (Homo sapiens) (UniProt P09619); test: Inhibition of N-terminal GST tagged human PDGFRbeta cytoplasmic domain (557 to 1106 AA) expressed in baculovirus at 10 uM using FAM-labelled peptide as substrate pre-incubated for 10 mins followed by substrate addition by mobility shift assay relative to control
[17] = tested on: NCI-H226; test: Induction of apoptosis in human NCI-H226 cells assessed as viable cells at 1 uM measured after 24 hrs by Annexin-V/propidium iodide staining-based flow cytometric analysis (reference value: 93.4%); type: functional; conditions: NCI-H226, 24 h, read-out: Activity
[18] = molecular target: Tyrosine-protein kinase JAK2 (Homo sapiens) (UniProt O60674); test: Inhibition of N-terminal GST tagged human JAK2 catalytic domain (826 to 1132 AA) expressed in baculovirus at 10 uM using FAM-labelled peptide as substrate pre-incubated for 10 mins followed by substrate addition by mobility shift assay relative to control
[19] = molecular target: T2, Epidermal growth factor receptor; test: Inhibition of N-terminal GST-tagged human EGFR cytoplasmic domain (669-1210 AA) expressed in baculovirus using FAM-labelled peptide as substrate pre-incubated for 10 mins followed by substrate addition by mobility shift assay
[20] = molecular target: Fibroblast growth factor receptor 4 (Homo sapiens) (UniProt P22455); test: Inhibition of N-terminal GST tagged human FGFR4 cytoplasmic domain (460 to 802 AA) expressed in baculovirus at 10 uM using FAM-labelled peptide as substrate pre-incubated for 10 mins followed by substrate addition by mobility shift assay relative to control
[21] = molecular target: T2, Epidermal growth factor receptor; test: Inhibition of EGF-induced EGFR phosphorylation in serum-starved human HCC827 cells upto 10 uM incubated for 1 hr by Western blot analysis; type: cell-based
[22] = Induction of apoptosis in gefitinib-insensitive human HCC827GR cells assessed as viable cells at 2.5 uM measured after 24 hrs by Annexin-V/propidium iodide staining-based flow cytometric analysis (reference value: 90.8%); type: functional; conditions: read-out: Activity
[23] = molecular target: Mitogen-activated protein kinase 8 (Homo sapiens) (UniProt P45983); test: Inhibition of human full length His-tagged JNK1 expressed in baculovirus expression system at 10 uM using FAM-labelled peptide as substrate pre-incubated for 10 mins followed by substrate addition by mobility shift assay relative to control
[24] = Induction of apoptosis in gefitinib-insensitive human HCC827GR cells assessed as viable cells at 10 uM measured after 24 hrs by Annexin-V/propidium iodide staining-based flow cytometric analysis (reference value: 90.8%); type: functional; conditions: read-out: Activity
[25] = molecular target: Vascular endothelial growth factor receptor 1 (Homo sapiens) (UniProt P17948); test: Inhibition of N-terminal GST tagged human FLT1 cytoplasmic domain (781 to 1338 AA) expressed in baculovirus at 10 uM using FAM-labelled peptide as substrate pre-incubated for 10 mins followed by substrate addition by mobility shift assay relative to control
Chain of Vascular endothelial growth factor receptor 1 (Homo sapiens) (P17948 whole entry, the tested form may be a part): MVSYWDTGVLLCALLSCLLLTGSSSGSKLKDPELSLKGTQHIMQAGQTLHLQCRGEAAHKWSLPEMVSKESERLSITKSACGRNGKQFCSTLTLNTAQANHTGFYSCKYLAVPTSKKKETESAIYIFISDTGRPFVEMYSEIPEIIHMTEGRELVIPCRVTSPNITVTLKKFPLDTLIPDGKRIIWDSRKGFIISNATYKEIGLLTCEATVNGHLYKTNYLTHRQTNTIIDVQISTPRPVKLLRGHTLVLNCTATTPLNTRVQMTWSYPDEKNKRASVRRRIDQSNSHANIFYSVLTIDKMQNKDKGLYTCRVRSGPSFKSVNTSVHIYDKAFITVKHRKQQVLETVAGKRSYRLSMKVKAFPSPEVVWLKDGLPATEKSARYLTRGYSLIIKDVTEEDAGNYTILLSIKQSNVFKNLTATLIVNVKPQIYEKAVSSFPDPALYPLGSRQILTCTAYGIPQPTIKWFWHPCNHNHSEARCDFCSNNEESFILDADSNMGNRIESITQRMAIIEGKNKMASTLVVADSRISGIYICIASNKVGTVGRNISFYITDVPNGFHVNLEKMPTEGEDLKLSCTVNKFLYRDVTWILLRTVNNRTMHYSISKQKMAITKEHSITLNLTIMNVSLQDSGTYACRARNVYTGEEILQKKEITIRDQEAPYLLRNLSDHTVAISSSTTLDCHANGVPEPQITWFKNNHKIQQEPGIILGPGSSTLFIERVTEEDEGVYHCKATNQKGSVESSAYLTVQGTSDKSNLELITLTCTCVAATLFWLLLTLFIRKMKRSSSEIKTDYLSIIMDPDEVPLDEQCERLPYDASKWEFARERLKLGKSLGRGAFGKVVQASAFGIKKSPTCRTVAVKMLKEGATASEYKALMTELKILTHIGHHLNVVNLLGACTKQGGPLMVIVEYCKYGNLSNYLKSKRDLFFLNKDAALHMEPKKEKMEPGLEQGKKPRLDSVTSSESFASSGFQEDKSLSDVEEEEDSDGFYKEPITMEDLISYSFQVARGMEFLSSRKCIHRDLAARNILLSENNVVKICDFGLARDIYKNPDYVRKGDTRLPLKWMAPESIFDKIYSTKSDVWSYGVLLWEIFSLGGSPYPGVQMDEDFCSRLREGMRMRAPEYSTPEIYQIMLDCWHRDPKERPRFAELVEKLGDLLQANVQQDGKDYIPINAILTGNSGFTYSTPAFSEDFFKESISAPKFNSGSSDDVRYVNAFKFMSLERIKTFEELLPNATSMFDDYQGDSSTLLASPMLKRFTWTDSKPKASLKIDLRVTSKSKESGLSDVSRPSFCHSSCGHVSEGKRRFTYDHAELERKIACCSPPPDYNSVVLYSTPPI

[26] = molecular target: T2, Epidermal growth factor receptor; test: Inhibition of N-terminal GST-tagged human EGFR (d746-750AA) expressed in baculovirus using FAM-labelled peptide as substrate pre-incubated for 10 mins followed by substrate addition by mobility shift assay
[27] = tested on: Epidermal growth factor receptor (Homo sapiens), P00533 [L858R]; test: Inhibition of recombinant human EGFR L858R mutant expressed in baculovirus at 10 uM using FAM-labelled peptide as substrate pre-incubated for 10 mins followed by substrate addition by mobility shift assay relative to control
Chain of Epidermal growth factor receptor (Homo sapiens), P00533 [L858R] (P00533 whole entry L858R): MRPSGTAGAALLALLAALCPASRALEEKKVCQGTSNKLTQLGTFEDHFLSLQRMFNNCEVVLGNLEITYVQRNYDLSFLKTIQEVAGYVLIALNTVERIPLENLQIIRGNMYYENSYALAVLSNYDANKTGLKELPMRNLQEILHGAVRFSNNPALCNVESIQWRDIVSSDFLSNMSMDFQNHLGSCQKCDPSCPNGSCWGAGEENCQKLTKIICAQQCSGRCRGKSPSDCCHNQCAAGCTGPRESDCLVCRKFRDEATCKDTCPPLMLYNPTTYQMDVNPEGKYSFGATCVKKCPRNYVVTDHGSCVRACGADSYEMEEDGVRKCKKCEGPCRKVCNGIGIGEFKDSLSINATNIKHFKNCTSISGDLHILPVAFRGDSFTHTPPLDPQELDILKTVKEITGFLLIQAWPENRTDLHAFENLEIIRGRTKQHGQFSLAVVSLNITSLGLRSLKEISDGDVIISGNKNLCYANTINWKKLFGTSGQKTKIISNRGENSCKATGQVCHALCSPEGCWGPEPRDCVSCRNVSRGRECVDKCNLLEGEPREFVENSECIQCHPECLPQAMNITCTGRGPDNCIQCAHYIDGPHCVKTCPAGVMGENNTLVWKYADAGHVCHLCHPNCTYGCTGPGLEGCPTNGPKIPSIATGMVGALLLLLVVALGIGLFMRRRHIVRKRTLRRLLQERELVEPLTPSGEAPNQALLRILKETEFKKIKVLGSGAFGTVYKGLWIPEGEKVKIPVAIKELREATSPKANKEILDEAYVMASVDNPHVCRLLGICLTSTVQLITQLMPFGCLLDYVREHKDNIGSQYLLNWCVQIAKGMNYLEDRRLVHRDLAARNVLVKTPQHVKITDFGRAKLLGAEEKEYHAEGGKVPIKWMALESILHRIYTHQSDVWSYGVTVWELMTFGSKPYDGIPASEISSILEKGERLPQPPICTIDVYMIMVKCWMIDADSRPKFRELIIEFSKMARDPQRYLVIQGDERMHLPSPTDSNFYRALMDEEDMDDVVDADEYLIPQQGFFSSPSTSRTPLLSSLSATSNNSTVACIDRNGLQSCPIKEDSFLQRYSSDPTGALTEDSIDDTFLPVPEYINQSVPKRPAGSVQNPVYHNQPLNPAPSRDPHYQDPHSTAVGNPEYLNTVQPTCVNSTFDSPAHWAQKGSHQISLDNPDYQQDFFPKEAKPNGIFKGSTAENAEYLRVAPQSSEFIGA

## COc1ccc(OC)c(Nc2cc(NC(=O)Nc3c(Cl)cccc3Cl)ncn2)c1
[1]
  inhibition at 10 µM: 95%
[2]
  inhibition: Dose-dependent effect
[3]
  Activity: 1.7%
[4]
  IC50: 39 nM
[5]
  inhibition: 9.1%
[6]
  inhibition: Active
[7]
  inhibition: 82.5%
[8]
  inhibition: Active
[9]
  IC50: 2530 nM
[10]
  IC50: 930 nM
[11]
  inhibition: 95.8%
[12]
  inhibition: 19.4%
[13]
  inhibition: Active
[14]
  inhibition: Dose-dependent effect
[15]
  inhibition: 9.31%
[16]
  inhibition: 56.2%
[17]
  viability at 1 µM: 87.7%
[18]
  inhibition: 13.9%
[19]
  IC50: 202 nM
[20]
  inhibition: 12.3%
[21]
  inhibition: Active
[22]
  viability at 2.5 µM: 79.5%
[23]
  inhibition: 3.79%
[24]
  viability at 10 µM: 51.5%
[25]
  inhibition: 27.6%
[26]
  IC50: 73 nM
[27]
  inhibition: 96.9%
